Experimental data published in PMC11938010, “Positive Charge in an Antimalarial Compound Unlocks Broad-Spectrum Antibacterial Activity” (JACS Au, 2025).
Values after ≈ are worked out from the molar mass of the structure shown. Read-outs that look alike come from different tables or passages of the source.

Experiments:
[1] = tested on: Plasmodium falciparum NF54; test: P. falciparum in vitro drug sensitivity assay on asexual blood stage parasites ([3H]-hypoxanthine incorporation); format: cell-based; details: for IC50: read-out: PfNF54 IC50
[2] = tested on: Staphylococcus aureus ssp. Aureus; test: In vitro antibacterial activity (MIC), S. aureus; format: cell-based; details: Staphylococcus aureus, read-out: Sa MIC95
Escherichia coli ∆tolC = test: microbe, parasite or virus in culture; format: cell-based; details: Escherichia coli; for inhibition at 50 µM: read-out: Ec∆tolC inh. at 50 µM (%)
[3] = tested on: Streptococcus pneumoniae (DSM20566); test: In vitro antibacterial activity (MIC), S. pneumoniae; format: cell-based; details: Streptococcus pneumoniae, DSM20566, read-out: Sp MIC95
in vitro = details: human
[4] = tested on: Mycobacterium tuberculosis (Mtb) strain H37Rv; test: microbe, parasite or virus in culture; format: cell-based; details: 168 h, 7 days, footnote b: not active at maximum solubility, read-out: MtbH37Rv MIC90
E. coli K12 = test: In vitro antibacterial activity (growth inhibition, OD600), E. coli wild-type; format: cell-based; details: Escherichia coli
[5] = tested on: Pseudomonas aeruginosa PA14; test: In vitro antibacterial activity (growth inhibition, OD600), P. aeruginosa; format: cell-based; details: PA14, 50 μM compound, Table 1 and main text, read-out: PA14 inh. at 50 μM
Acinetobacter baumannii = test: In vitro antibacterial activity (growth inhibition, OD600), A. baumannii; format: cell-based
[6] = Plasmodium falciparum, NF54, Table 1 and main text
[7] = Table S2, with standard deviation
[8] = K12, 50 µM, Table S1, with standard deviation, read-out: EcK12 inh. at 50 µM (%)
[9] = 50 μM compound, Table 1 and main text, read-out: Ab inh. at 50 μM
[10] = K12, 50 μM compound, Table 1 and main text, read-out: EcK12 inh. at 50 μM

| SMILES | IC50 [1, 6] [nM] | IC50 ([1]; Table 1 and main text) [nM] | MIC ([2]; Table 1 and main text) [µM] | MIC [2, 7] [µM] | MIC (Escherichia coli ∆tolC; read-out: EcΔtolC MIC95) [µM] | inhibition at 50 µM (Escherichia coli ∆tolC) [%] | MIC ([3]; Table 1 and main text) [µM] | MIC [3, 7] [µM] | CC50 (in vitro; HepG2 CC50, 48 h, MTT) [µM] | PfNF54 IC50 ([1]; Table 1 and main text) | MIC90 [4] [µM] | inhibition at 50 µM (E. coli K12; [8]) [%] | inhibition at 50 µM [5] [%] | inhibition at 50 µM (Acinetobacter baumannii; [9]) [%] | inhibition at 50 µM (Acinetobacter baumannii; 50 µM, Table S1, with standard deviation, read-out: Ab inh. at 50 µM (%)) [%] | inhibition at 50 µM (E. coli K12; [10]) [%] | MIC (Escherichia coli ∆tolC; read-out: Ec∆tolC MIC95 (µM)) [µM] | CC50 (in vitro; HepG2 CC50 (µM), Table S2, with standard deviation) [µM] | inhibition at 50 µM (E. coli K12; K12, read-out: EcK12 inh. at 50 μM, 50 μM compound, Table 1 and main text) [%] |
| --- | --- | --- | --- | --- | --- | --- | --- | --- | --- | --- | --- | --- | --- | --- | --- | --- | --- | --- | --- |
| Cc1ccc(NC(=O)c2cc(-c3cc(Cl)ccc3O)[nH]n2)cc1 [Compound 1d] | > 2000 | 2400 | > 50 | > 50 | > 50 | < 10 | > 50 | > 50 | > 50 | – | – | – | – | – | – | – | – | – | – |
| O=C(c1cc(-c2cc(Cl)ccc2O)[nH]n1)N1CCOCC1 [Compound 1e] | > 5000 | – | > 50 | > 50 | > 50 | 23 ± 3 | > 50 | > 50 | > 50 | inactive | > 16 | – | – | – | – | – | – | – | – |
| CC(C)(C)OC(=O)N1CCN(Cc2cccc(NC(=O)c3cc(-c4cc(Cl)ccc4O)[nH]n3)c2)CC1 [Compound 3B] | 1000 | – | > 50 | > 50 | > 50 | – | > 50 | > 50 | 25 | – | – | < 10 | – | – | – | – | – | – | – |
| O=C(Nc1ccc(CN2CCNCC2)cc1)c1cc(-c2cc(Cl)ccc2O)[nH]n1 [Compound 4A] | 270 | – | > 50 | > 50 | 40 (≈ 16.5 µg/mL) | – | 40 (≈ 16.5 µg/mL) | 40 ± 7 (≈ 16.5 µg/mL) | 13 | – | 64 (≈ 26.4 µg/mL) | – | 62 | 24 | 24.2 ± 7.7 | 34 | 40 ± 8 (≈ 16.5 µg/mL) | – | – |
| CC(C)(C)OC(=O)N1CCN(Cc2ccc(NC(=O)c3cc(-c4cc(Cl)ccc4O)[nH]n3)cc2)CC1 [Compound 4B] | 200 | – | > 50 | > 50 | > 50 | – | > 50 | > 50 | 7 | – | – | 17 ± 13 | – | – | – | – | – | 7.4 ± 0.7 | – |
| CC(C)(C)OC(=O)N1CCN(c2cccc(NC(=O)c3cc(-c4cc(Cl)ccc4O)[nH]n3)c2)CC1 [Compound 5B] | 900 | – | > 50 | > 50 | > 50 | 19 ± 14 | > 50 | > 50 | > 50 | – | – | < 10 | – | – | – | – | – | – | – |
| N=C(N)N1CCN(c2cccc(NC(=O)c3cc(-c4cc(Cl)ccc4O)[nH]n3)c2)CC1 [Compound 5G] | 930 | – | 23.1 (≈ 10.2 µg/mL) | 23.1 ± 0.5 (≈ 10.2 µg/mL) | 11 (≈ 4.84 µg/mL) | – | 48 (≈ 21.1 µg/mL) | 48 ± 1 (≈ 21.1 µg/mL) | > 50 | – | 64 (≈ 28.2 µg/mL) | – | 31 | < 10 | – | 32 | 11 ± 2 (≈ 4.84 µg/mL) | – | – |
| CC(C)(C)OC(=O)N1CCN(c2ccc(NC(=O)c3cc(-c4cc(Cl)ccc4O)[nH]n3)cc2)CC1 [Compound 6B] | 1610 | – | > 50 | > 50 | > 50 | < 10 | > 50 | > 50 | > 50 | – | – | – | – | – | – | – | – | – | – |
| N=C(N)N1CCN(c2ccc(NC(=O)c3cc(-c4cc(Cl)ccc4O)[nH]n3)cc2)CC1 [Compound 6G] | 440 | – | 26 (≈ 11.4 µg/mL) | 26 ± 2 (≈ 11.4 µg/mL) | 9 (≈ 3.96 µg/mL) | – | 25 (≈ 11 µg/mL) | 25 ± 2 (≈ 11 µg/mL) | > 50 | – | 64 (≈ 28.2 µg/mL) | – | 55 | 32 | – | – | 9 ± 3 (≈ 3.96 µg/mL) | – | ≥ 45 |
| CC(C)(C)OC(=O)NCc1cccc(NC(=O)c2cc(-c3cc(Cl)ccc3O)[nH]n2)c1 [Compound 7B] | 1100 | – | > 50 | > 50 | > 50 | < 10 | > 50 | > 50 | > 50 | – | – | < 10 | – | – | – | – | – | – | – |
